Patent US12048316B2, “Sweetener and flavor compositions, methods of making and methods of use thereof” (EPC Natural Products Co., Ltd., priority 2018, dated 2024)

Key:
[1] = HPLC/MS quantitative evaluation: degradation of reaction partners and formation of MRI at various pH-conditions; assay type: physicochemical; settings: pH = 7.0
Protocol: All samples were analyzed by HPLC/ISIS using following conditions.
Quantitative evaluation was performed using external standardization.

[2] = relative to sucrose (sugar, cane sugar); depends on the tested concentration; cited from earlier work
[3] = Assay to test DPPH radical-scavenging activity; assay type: biochemical; settings: combinations of amino acids and Reb-A, 100° C.; less pronounced than glucose or xylose
Protocol: 1 mg 1,1-Diphenyl-2-picrylhydrazyl radical (DPPH)/ml ethanol, dilution to assay concentration were prepared in ethanol (40 μg/mL); Calibration samples were prepared with Ascorbic acid in a concentration of 0-10 μg/mL, as a negative control sample, water was used.
Samples in aqueous solution were used as such or diluted with water.
A 0.1 ml sample (or calibration standard) was mixed with 3.9 ml solution of DPPH (100 μMolar) and reacted while protected from light at room temperature for 30 min. Absorbance was determined at 517 nm against ethanol.
10 mM of amino acid and/or 10 mM sugar were dissolved in 10 ml 0.1 mM KH2PO4-buffer, pH=7.8
The samples were kept at 100° C. in sealed glass vials (Pyrex 15 ml with screw caps) for 0 (before reaction), 2.5 or 5.0 hours. Thereafter the samples were transferred to an ice water bath and cooled down to room temperature. These samples were diluted 1:10 and used for the test assay for anti-oxidant potential.

Structure (SMILES) | times sweeter than sucrose / sugar [2] | other results
O=C[C@H](O)[C@@H](O)[C@H](O)CO [Xyl, xylose] | – | % degradation ([1]; reaction Phe + Xyl): 6.3%
OC[C@H]1O[C@H](O[C@]2(CCl)O[C@H](CCl)[C@@H](O)[C@@H]2O)[C@H](O)[C@@H](O)[C@H]1Cl [sucralose] | about 600 times | –
O=C[C@H](O)[C@@H](O)[C@H](O)[C@H](O)CO [Glu, Glucose] | – | % degradation ([1]; reaction Phe + Gluc): 4.6%
C=C1C[C@@]23CC[C@H]4[C@@](C)(CCC[C@@]4(C)C(=O)O[C@@H]4O[C@H](CO)[C@@H](O)[C@H](O)[C@H]4O)[C@@H]2CC[C@]1(O[C@@H]1O[C@H](CO)[C@@H](O)[C@H](O[C@@H]2O[C@H](CO)[C@@H](O)[C@H](O)[C@H]2O)[C@H]1O[C@@H]1O[C@H](CO)[C@@H](O)[C@H](O)[C@H]1O)C3 [Reb-A, Rebaudioside A] | – | anti-oxidant properties (iron-III reduction, radical scavenging) [3]: substantial anti-oxidant properties
O=S(=O)([O-])NC1CCCCC1.[Na+] [sodium cyclamate] | about 30 times | –
C=C1C[C@@]23CC[C@H]4[C@@](C)(CCC[C@@]4(C)C(=O)O[C@@H]4O[C@H](CO)[C@@H](O)[C@H](O)[C@H]4O)[C@@H]2CC[C@]1(O[C@@H]1O[C@H](CO)[C@@H](O)[C@H](O)[C@H]1O)C3 [Rubusoside] | 200 times | –
